Assay in all cases: MIC, solid dilution method
The test system of assay [1] is Enterobacter aerogenes 8193. The assay is classed as cell-based. The settings on record: Klebsiella aerogenes; E. ae 8193, CRE clinical isolate; MHA agar, 37° C., 16-20 hours; read-out: MIC. The protocol:
CRE Enterobacter aerogenes 8193, a total of 1 strain;
(§1) The above-mentioned glycerol-preserved strains were taken out from the −80° C. refrigerator, streaked and inoculated on MHA plates, labeled, and cultured overnight in a 37° C. incubator.
(§2) The inoculum was prepared directly from bacterial suspension, and several recovered colonies were picked and directly prepared into a bacterial suspension with a turbidity of No. 0.5 McFarland units in normal saline, and a 10-fold dilution was made during inoculation.
(§3) 6 bottles of MHA culture medium 500 mL/bottle were prepared, and the pH was adjusted to 7.2-7.4, sterilized at 121° C. for 15 min, and the medium was placed in a 55° C. water bath to keep warm.
(§4) Sterile blank petri dishes were taken, and marked with each FL drug/concentration according to 2-fold dilution, and 10 concentrations of each drug starting from 8 μg/mL were tested.
(§5) […]; 20 mL was aspirated and added to a petri dish consistent with the mark, and then 20 mL of MHA culture medium was added to the rest of the drug-containing culture medium, mixed evenly, that is, the 2-fold diluted drug-containing culture medium; 20 mL was aspirated and added to the petri dish consistent with the mark, and then diluted to the 10th concentration and the […] respectively by repeating the above-mentioned steps, and then poured into the petri dish.
(§6) 4 bacterial control petri dishes without drug were prepared at the same time as a control.
(§7) The positioning needle and the inoculation needle were installed according to the order of placement of the colony on the inoculation plate. After inoculation, a bacterial solution circle was formed on the petri dish. After the bacterial solution was absorbed by the agar, the petri dish was placed in an incubator at 37° C. for overnight incubation (16-20 hours), and then taken out.
(§8) The minimum inhibitory concentrations of the compounds against the CRE and CSE strains were determined by the solid dilution method, and the results are shown in Tables 3 and 4.

For assay [2], the system named is Citrobacter freundii 9484. The assay is classed as cell-based. The note with it: C.f 9484, CRE clinical isolate, MHA agar, 37° C., 16-20 hours, read-out: MIC. The protocol:
(§9) CRE Citrobacter freundii 9434, 9484 and CSE Citrobacter freundii 7646, a total of 3 strains;
as §1, §2, §3, §4, §5, §6, §7, §8

In assay [3] the test system is Citrobacter freundii 7646. The assay is classed as cell-based. The note with it: C.f 7646, CSE clinical isolate, MHA agar, 37° C., 16-20 hours, read-out: MIC. The protocol: as §9, §1, §2, §3, §4, §5, §6, §7, §8
Assay [4] relates to Citrobacter freundii 9434. The assay is classed as cell-based. The settings on record: 9434. As to the method:
as §9, §1, §2, §3, §4, §5, §6, §7, §8

Assay [5] has as its system Klebsiella pneumoniae 11544. The assay is classed as cell-based. The note with it: 11544. As to the method:
(§10) (2) Clinical isolated strains: CRE Klebsiella pneumoniae 5846, 11544, 12559, 13249 and CSE Klebsiella pneumoniae 8733, a total of 5 strains;
as §1, §2, §3, §4, §5, §6, §7, §8

In assay [6] the test system is Klebsiella pneumoniae 8733. The assay is classed as cell-based. The settings on record: K.p 8733, CSE clinical isolate, MHA agar, 37° C., 16-20 hours, read-out: MIC. The protocol: as §10, §1, §2, §3, §4, §5, §6, §7, §8
In assay [7] the test system is Klebsiella pneumoniae 5846. The assay is classed as cell-based. The note with it: 5846. The protocol:
as §10, §1, §2, §3, §4, §5, §6, §7, §8

In assay [8] the test system is Klebsiella pneumoniae 13249. The assay is classed as cell-based. The note with it: 13249. As to the method:
as §10, §1, §2, §3, §4, §5, §6, §7, §8

The test system of assay [9] is Klebsiella pneumoniae 12559. The assay is classed as cell-based. The settings on record: K.p 12559, CRE clinical isolate, MHA agar, 37° C., 16-20 hours, read-out: MIC. The protocol: as §10, §1, §2, §3, §4, §5, §6, §7, §8
Assay [10] has as its system Serratia marcescens 14541. The assay is classed as cell-based. The settings on record: 14541. The protocol: (§11) CRE Acinetobacter baumannii 8476, 6383, a total of 2 strains; CRE Serratia marcescens 14541, a total of 1 strain; all collected in the Department of Infectious Diseases, West China Hospital, Chengdu, Sichuan Province, and kept in our laboratory.
as §1, §2, §3, §4, §5, §6, §7, §8

The test system of assay [11] is Acinetobacter baumannii 8476. The assay is classed as cell-based. The settings on record: A.B 8476, CRE clinical isolate, MHA agar, 37° C., 16-20 hours, read-out: MIC. As to the method:
as §11, §1, §2, §3, §4, §5, §6, §7, §8

Assay [12] concerns Acinetobacter baumannii 6383. The assay is classed as cell-based. The note with it: 6383. The protocol: as §11, §1, §2, §3, §4, §5, §6, §7, §8
The next assay has as its system Klebsiella oxytoca 12391. The assay is classed as cell-based. The settings on record: K. ox 12391, CRE clinical isolate, MHA agar, 37° C., 16-20 hours, read-out: MIC. As to the method: as §1, §2, §3, §4, §5, §6, §7, §8
The test system of another assay is Klebsiella oxytoca 14151. The assay is classed as cell-based. The note with it: 14151. As to the method: as §1, §2, §3, §4, §5, §6, §7, §8
The test system of the next assay is Klebsiella oxytoca 14153. The assay is classed as cell-based. The settings on record: 14153. As to the method:
as §1, §2, §3, §4, §5, §6, §7, §8

For a further assay, the system named is Escherichia coli 14828. The assay is classed as cell-based. The note with it: 14828. The protocol: as §1, §2, §3, §4, §5, §6, §7, §8
In the next assay the test system is Escherichia coli 11119. The assay is classed as cell-based. The note with it: 11119. As to the method: as §1, §2, §3, §4, §5, §6, §7, §8
The test system of the next assay is Klebsiella oxytoca 6777. The assay is classed as cell-based. The settings on record: 6777. The protocol: as §1, §2, §3, §4, §5, §6, §7, §8
The subject of a further assay is E. coli 11256. The assay is classed as cell-based. The note with it: Escherichia coli; E. coli 11256; MHA agar, 37° C., 16-20 hours; read-out: MIC. The protocol: as §1, §2, §3, §4, §5, §6, §7, §8
The next assay relates to Escherichia coli 13897. The assay is classed as cell-based. The note with it: E. coli 13897, CRE clinical isolate, MHA agar, 37° C., 16-20 hours, read-out: MIC. The protocol:
as §1, §2, §3, §4, §5, §6, §7, §8

The test system of assay [13] is Escherichia coli ATCC25922. The assay is classed as cell-based. The note with it: E. coli ATCC25922, standard strain, MHA agar, 37° C., 16-20 hours, read-out: MIC. The protocol:
(§12) (1) Standard strains: Escherichia coli BAA-2452, Escherichia coli ATCC25922, Klebsiella pneumoniae BAA-1705; all purchased from ATCC.
as §1, §2, §3, §4, §5, §6, §7, §8

For assay [14], the system named is Klebsiella pneumoniae BAA-1705. The assay is classed as cell-based. The note with it: BAA1705. The protocol: as §12, §1, §2, §3, §4, §5, §6, §7, §8
Assay [15] relates to Escherichia coli BAA-2452. The assay is classed as cell-based. The note with it: BAA2452, E. coli BAA-2452, standard strain, MHA agar, 37° C., 16-20 hours, read-out: MIC. The protocol: as §12, §1, §2, §3, §4, §5, §6, §7, §8
The subject of a further assay is E. ae 14186. The assay is classed as cell-based, Enterobacter aerogenes. The note with it: Klebsiella aerogenes, 14186. As to the method: as §1, §2, §3, §4, §5, §6, §7, §8

As usually defined, the MIC is the least concentration at which growth counts as inhibited.

In brackets after ≈: the same amount, converted by molar mass.

For the compound `C[C@H]1[C@H](NC(=O)/C(=N\OC(C)(C)C(=O)O)c2csc(N)n2)C(=O)N1S(=O)(=O)O` [Aztreonam, aztreonam, reference compound], the MIC in assay [1] is 32 µg/mL (≈ 73.5 µM); in assay [2], 1 µg/mL (≈ 2.3 µM); in [3], 16 µg/mL (≈ 36.7 µM); in assay [4], greater than 128 µg/mL; in assay [5], greater than 128 µg/mL; in assay [6] it was 8 µg/mL (≈ 18.4 µM). The MIC in [7] is 128 µg/mL (≈ 294 µM); in assay [8], greater than 128 µg/mL; in assay [9] it was 4 µg/mL (≈ 9.19 µM); in assay [10], greater than 128 µg/mL; in [11], 64 µg/mL (≈ 147 µM); in assay [12], 128 µg/mL (≈ 294 µM). For the same compound, the minimum inhibitory concentration (MIC) with Klebsiella oxytoca 12391 was 32 µg/mL (≈ 73.5 µM); in the assay with Klebsiella oxytoca 14151, greater than 128 µg/mL; in the assay on Klebsiella oxytoca 14153 it was greater than 128 µg/mL; against Escherichia coli 14828, greater than 128 µg/mL; with Escherichia coli 11119, greater than 128 µg/mL; in the assay on Klebsiella oxytoca 6777, 128 µg/mL (≈ 294 µM). For the same compound, the MIC is less than 0.25 µg/mL with E. coli 11256; 64 µg/mL (≈ 147 µM) in the assay on Escherichia coli 13897; less than 0.25 µg/mL in assay [13]; greater than 128 µg/mL in assay [14]; 8 µg/mL (≈ 18.4 µM) in assay [15]; greater than 128 µg/mL against E. ae 14186.

The values above are taken from patent US12491180B2, “Application of compound in treating pneumonia” (SHENZHEN OPTIMUM BIOLOGICAL TECHNOLOGY CO., LTD., priority 2019, dated 2025).
